Experimental data published in article PMC8020607 (Computational Biology and Chemistry, 2021).

Biological target: T1, C5a (recombinant human C5a) (Homo sapiens, UniProt P01031)
T1 sequence (P01031 678-751 limits assumed): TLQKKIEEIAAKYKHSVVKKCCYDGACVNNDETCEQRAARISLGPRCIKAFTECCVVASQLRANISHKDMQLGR
Test: intrinsic tyrosine fluorescence titration, non-linear fit
Type: binding

C[C@]12C=CC(=O)C=C1CC[C@@H]1[C@@H]2C(=O)C[C@@]2(C)[C@H]1CC[C@]2(O)C(=O)CO [prednisone]
Kd: ~380 nM
